Laboratory results as given in patent US20250122183A1 (Pfizer Inc., priority 2023, published 2025).
Where two headings read alike, the source gives them in different places.

Experiments:
Type in all cases: biochemical
Conditions in all cases: replicate number in parentheses
[1] = biological target: KAT7+JADE1+EAF6+ING5 4 protein complex (Homo sapiens (Human), UniProt O95251); assay: KAT7 JADE1 assay (SAMDI-MS acetylation of H3 1-21 peptide)
KAT6A Full length enzyme = KAT6A Full length enzyme (Homo sapiens (Human), UniProt Q92794); assay: KAT6A assay (SAMDI-MS acetylation of H3 1-21 peptide)
KAT8 Full length enzyme = KAT8 Full length enzyme (Homo sapiens (Human), UniProt Q9H7Z6); assay: KAT8 assay (SAMDI-MS acetylation of H3 1-21 peptide)
[2] = Morrison equation fit, read-out: KAT7 JADE1 Ki (nM) (replicate number)
[3] = Morrison equation fit, read-out: KAT6A Ki (nM) (replicate number)
[4] = Morrison equation fit, read-out: KAT8 Ki (nM) (replicate number)
[5] = read-out: KAT7 JADE1 Ki (nM) (replicate)
[6] = read-out: KAT6A Ki (nM) (replicate)

Sequence of KAT8 Full length enzyme (Q9H7Z6 whole entry): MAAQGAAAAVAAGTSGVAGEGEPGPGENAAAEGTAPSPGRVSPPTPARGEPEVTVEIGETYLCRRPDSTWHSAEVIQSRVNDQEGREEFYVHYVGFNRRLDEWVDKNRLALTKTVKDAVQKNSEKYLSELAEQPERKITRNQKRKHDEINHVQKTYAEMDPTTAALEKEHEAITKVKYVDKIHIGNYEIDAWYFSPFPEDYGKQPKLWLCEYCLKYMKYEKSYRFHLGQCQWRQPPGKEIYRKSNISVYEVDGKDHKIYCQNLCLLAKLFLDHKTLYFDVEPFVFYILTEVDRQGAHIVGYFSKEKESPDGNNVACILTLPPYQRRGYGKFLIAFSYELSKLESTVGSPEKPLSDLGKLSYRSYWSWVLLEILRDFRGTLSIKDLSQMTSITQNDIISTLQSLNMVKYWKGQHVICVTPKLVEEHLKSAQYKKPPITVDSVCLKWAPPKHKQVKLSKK
Sequence of KAT6A Full length enzyme (Q92794 other isoform, or with tags, fused parts or gaps): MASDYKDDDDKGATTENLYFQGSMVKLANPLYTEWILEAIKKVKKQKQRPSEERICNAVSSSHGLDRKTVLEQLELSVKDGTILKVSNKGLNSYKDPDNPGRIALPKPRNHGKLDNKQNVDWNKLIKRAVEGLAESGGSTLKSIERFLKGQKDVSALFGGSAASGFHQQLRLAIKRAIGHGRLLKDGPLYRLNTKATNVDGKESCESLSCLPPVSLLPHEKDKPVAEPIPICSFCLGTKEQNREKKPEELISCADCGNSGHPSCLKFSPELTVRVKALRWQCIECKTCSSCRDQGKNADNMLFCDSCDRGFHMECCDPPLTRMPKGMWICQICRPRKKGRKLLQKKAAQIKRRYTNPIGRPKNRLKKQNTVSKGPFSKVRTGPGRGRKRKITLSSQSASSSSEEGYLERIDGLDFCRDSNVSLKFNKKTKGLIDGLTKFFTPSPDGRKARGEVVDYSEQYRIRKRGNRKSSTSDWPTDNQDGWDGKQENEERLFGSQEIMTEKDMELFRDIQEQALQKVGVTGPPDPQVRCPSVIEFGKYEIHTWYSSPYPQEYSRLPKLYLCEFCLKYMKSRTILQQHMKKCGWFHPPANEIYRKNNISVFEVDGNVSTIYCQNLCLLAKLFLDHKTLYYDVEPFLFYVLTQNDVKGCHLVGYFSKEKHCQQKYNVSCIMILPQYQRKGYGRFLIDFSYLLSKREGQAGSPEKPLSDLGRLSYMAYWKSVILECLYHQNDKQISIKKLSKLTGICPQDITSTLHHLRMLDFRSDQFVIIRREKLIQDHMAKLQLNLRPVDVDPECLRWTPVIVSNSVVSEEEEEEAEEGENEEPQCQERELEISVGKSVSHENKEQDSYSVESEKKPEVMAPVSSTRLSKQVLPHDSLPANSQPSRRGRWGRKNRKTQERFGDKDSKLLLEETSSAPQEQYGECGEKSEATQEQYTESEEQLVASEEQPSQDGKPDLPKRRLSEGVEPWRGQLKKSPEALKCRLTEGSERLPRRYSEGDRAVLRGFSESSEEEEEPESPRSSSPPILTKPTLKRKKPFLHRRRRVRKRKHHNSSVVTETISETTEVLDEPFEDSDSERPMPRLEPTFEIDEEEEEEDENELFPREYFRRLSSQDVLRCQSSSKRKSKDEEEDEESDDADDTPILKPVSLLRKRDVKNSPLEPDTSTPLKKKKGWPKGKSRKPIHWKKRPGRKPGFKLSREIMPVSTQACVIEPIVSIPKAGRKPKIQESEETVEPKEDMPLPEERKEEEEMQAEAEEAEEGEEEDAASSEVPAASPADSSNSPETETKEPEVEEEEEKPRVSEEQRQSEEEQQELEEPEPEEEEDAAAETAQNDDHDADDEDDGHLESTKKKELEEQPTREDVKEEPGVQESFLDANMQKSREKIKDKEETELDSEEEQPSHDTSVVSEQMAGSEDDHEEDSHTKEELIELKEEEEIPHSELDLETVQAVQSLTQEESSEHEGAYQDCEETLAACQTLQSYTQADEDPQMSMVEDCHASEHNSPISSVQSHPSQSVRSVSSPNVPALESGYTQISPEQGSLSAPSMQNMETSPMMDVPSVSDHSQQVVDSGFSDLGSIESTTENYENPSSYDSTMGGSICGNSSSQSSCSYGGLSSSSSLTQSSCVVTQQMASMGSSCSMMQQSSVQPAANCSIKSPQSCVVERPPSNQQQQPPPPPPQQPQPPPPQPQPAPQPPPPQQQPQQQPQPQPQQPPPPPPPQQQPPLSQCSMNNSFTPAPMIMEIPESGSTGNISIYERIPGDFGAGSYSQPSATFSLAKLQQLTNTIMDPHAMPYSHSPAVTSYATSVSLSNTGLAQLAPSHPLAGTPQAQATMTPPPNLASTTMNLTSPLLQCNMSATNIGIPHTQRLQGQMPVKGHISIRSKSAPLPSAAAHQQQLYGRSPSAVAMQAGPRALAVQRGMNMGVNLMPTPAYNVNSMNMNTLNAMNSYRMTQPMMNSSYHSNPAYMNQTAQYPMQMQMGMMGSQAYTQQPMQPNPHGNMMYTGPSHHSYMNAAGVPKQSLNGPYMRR

Compound	Ki [1, 2]	Ki (KAT6A Full length enzyme; [3])	Ki (KAT8 Full length enzyme; [4])	Ki [1, 5]	Ki (KAT6A Full length enzyme; [6])	Ki (KAT8 Full length enzyme; read-out: KAT8 Ki (nM) (replicate))
COc1cc2c(NS(=O)(=O)c3c(OC)cc(-c4nccc(C)n4)cc3OC)noc2cc1Nc1cc(C2CC2)n[nH]1 [Example 214, N-{6-[(3-cyclopropyl-1H-pyrazol-5-yl)amino]-5-methoxy-1,2-benzoxazol-3-yl}-2,6-dimethoxy-4-(4-methylpyrimidin-2-yl)benzene-1-sulfonamide]	4.3 nM	0.7 nM	1720 nM	–	–	–
COCc1cc(OC)c(S(=O)(=O)Nc2noc3cc(Nc4cc(C5CC5)n[nH]4)c(OC)cc23)c(OC)c1 [Example 270, N-{6-[(3-cyclopropyl-1 H-pyrazol-5-yl)amino]-5-methoxy-1,2-benzoxazol-3-yl}-2,6-dimethoxy-4-(methoxymethyl)benzene-1-sulfonamide]	–	–	–	13.5 nM	1.3 nM	1790 nM
COc1cc2c(NS(=O)(=O)c3c(OC)cc([C@@H]4COCCO4)cc3OC)noc2cc1Nc1cc(C2CC2)n[nH]1 [Example 145]	9.2 nM	1.8 nM	1510 nM	–	–	–
CCc1cc(Nc2cc3onc(NS(=O)(=O)c4c(OC)cc(-c5nccc(C)n5)cc4OC)c3cc2OC)[nH]n1 [Example 233, N-{6-[(3-ethyl-1H-pyrazol-5-yl)amino]-5-methoxy-1,2-benzoxazol-3-yl}-2,6-dimethoxy-4-(4-methylpyrimidin-2-yl)benzene-1-sulfonamide]	8.9 nM	1.7 nM	2000 nM	–	–	–
COc1cc2c(NS(=O)(=O)c3c(OC)cc(C(=O)N4CCC(F)(F)C4)cc3OC)noc2cc1Nc1cc(C2CC2)n[nH]1 [Example 257, N-{6-[(3-cyclopropyl-1H-pyrazol-5-yl)amino]-5-methoxy-1,2-benzoxazol-3-yl}-4-(3,3-difluoropyrrolidine-1-carbonyl)-2,6-dimethoxybenzene-1-sulfonamide]	–	–	–	9.5 nM	1.6 nM	–
COc1cc2c(NS(=O)(=O)c3c(OC)cccc3OC)noc2cc1Nc1ccn(C(C)C)n1 [Example 53, 2,6-dimethoxy-N-(5-methoxy-6-{[1-(propan-2-yl)-1H-pyrazol-3-yl]amino}-1,2-benzoxazol-3-yl)benzene-1-sulfonamide]	441 nM	19.8 nM	–	–	–	–
COc1cc2c(NS(=O)(=O)c3c(OC)cc(C(=O)N4CCC[C@H](F)C4)cc3OC)noc2cc1Nc1cc(C2CC2)n[nH]1 [Example 261, N-{6-[(3-cyclopropyl-1H-pyrazol-5-yl)amino]-5-methoxy-1,2-benzoxazol-3-yl}-4-[(3S)-3-fluoropiperidine-1-carbonyl]-2,6-dimethoxybenzene-1-sulfonamide]	–	–	–	6.7 nM	1.1 nM	–
COc1cc2c(NS(=O)(=O)c3c(OC)cccc3OC)noc2cc1Nc1cc(C)nn1C [Example 38, N-{6-[(1,3-dimethyl-1H-pyrazol-5-yl)amino]-5-methoxy-1,2-benzoxazol-3-yl}-2,6-dimethoxybenzene-1-sulfonamide]	> 12500 nM	60.4 nM	–	–	–	–
COc1cc2c(NS(=O)(=O)c3c(OC)cccc3OC)noc2cc1Nc1cc(C(C)C)nn1C [Example 51, 2,6-dimethoxy-N-(5-methoxy-6-{[1-methyl-3-(propan-2-yl)-1H-pyrazol-5-yl]amino}-1,2-benzoxazol-3-yl)benzene-1-sulfonamide]	> 4990 nM	> 377 nM	–	–	–	–
COCC(OC)c1cc(OC)c(S(=O)(=O)Nc2noc3cc(Nc4cc(C5CC5)[nH]n4)c(OC)cc23)c(OC)c1 (single isomer, unassigned) [Example 274, N-{6-[(5-cyclopropyl-1 H-pyrazol-3-yl)amino]-5-methoxy-1,2-benzoxazol-3-yl}-4-(1,2-dimethoxyethyl)-2,6-dimethoxybenzene-1-sulfonamide]	–	–	–	6.9 nM	2.8 nM	–
COc1cc2c(NS(=O)(=O)c3c(OC)cc(C4CCCOC4)cc3OC)noc2cc1Nc1cc(C2CC2)n[nH]1 (single isomer, unassigned) [Example 269, N-{6-[(3-cyclopropyl-1 H-pyrazol-5-yl)amino]-5-methoxy-1,2-benzoxazol-3-yl}-2,6-dimethoxy-4-(oxan-3-yl)benzene-1-sulfonamide]	–	–	–	6.1 nM	0.8 nM	–
COc1cc2c(NS(=O)(=O)c3c(OC)cc(C4COCCN4C)cc3OC)noc2cc1Nc1cc(C2CC2)[nH]n1 (single isomer, unassigned) [Example 179, N-{6-[(5-cyclopropyl-1 H-pyrazol-3-yl)amino]-5-methoxy-1,2-benzoxazol-3-yl}-2,6-dimethoxy-4-(4-methylmorpholin-3-yl)benzene-1-sulfonamide]	8.6 nM	1 nM	–	–	–	–
COc1cc2c(NS(=O)(=O)c3c(OC)cc(C4CCN([C@H]5CCOC5)C4)cc3OC)noc2cc1Nc1cc(C2CC2)n[nH]1 (single isomer, unassigned) [Example 162]	8.9 nM	1.2 nM	–	–	–	–
COc1cc2c(NS(=O)(=O)c3c(OC)cc(C4CCCCN4C)cc3OC)noc2cc1Nc1cc(C2CC2)n[nH]1 (single isomer, unassigned) [Example 171, N-{6-[(3-cyclopropyl-1 H-pyrazol-5-yl)amino]-5-methoxy-1,2-benzoxazol-3-yl}-2,6-dimethoxy-4-(1-methylpiperidin-2-yl)benzene-1-sulfonamide]	8.4 nM	2.1 nM	–	–	–	–
COc1cc2c(NS(=O)(=O)c3c(OC)cc(C(C)N4CC(F)C4)cc3OC)noc2cc1Nc1cc(C2CC2)[nH]n1 (single isomer, unassigned) [Example 210, N-{6-[(5-cyclopropyl-1H-pyrazol-3-yl)amino]-5-methoxy-1,2-benzoxazol-3-yl}-4-[1-(3-fluoroazetidin-1-yl)ethyl]-2,6-dimethoxybenzene-1-sulfonamide]	6.6 nM	1.2 nM	–	–	–	–
COc1cc2c(NS(=O)(=O)c3c(OC)cc(C4CCCCO4)cc3OC)noc2cc1Nc1cc(C2CC2)n[nH]1 (single isomer, unassigned) [Example 142, N-{6-[(3-cyclopropyl-1 H-pyrazol-5-yl)amino]-5-methoxy-1,2-benzoxazol-3-yl}-2,6-dimethoxy-4-(oxan-2-yl)benzene-1-sulfonamide]	6.7 nM	0.7 nM	–	–	–	–
COc1cc2c(NS(=O)(=O)c3c(OC)cc(-c4nccc(N(C)C)n4)cc3OC)noc2cc1Nc1cc(C2CC2)n[nH]1 [Example 216, N-{6-[(3-cyclopropyl-1H-pyrazol-5-yl)amino]-5-methoxy-1,2-benzoxazol-3-yl}-4-[4-(dimethylamino)pyrimidin-2-yl]-2,6-dimethoxybenzene-1-sulfonamide]	1.6 nM	0.2 nM	–	–	–	–
COc1cc2c(NS(=O)(=O)c3c(OC)cc(-c4ncc(C#N)cn4)cc3OC)noc2cc1Nc1cc(C2CC2)n[nH]1 [Example 224, 4-(5-cyanopyrimidine-2-yl)-N-{6-[(3-cyclopropyl-1 H-pyrazol-5-yl)amino]-5-methoxy-1,2-benzoxazol-3-yl}-2,6-dimethoxybenzene-1-sulfonamide]	7.2 nM	1.5 nM	–	–	–	–
CCc1cc(Nc2cc3onc(NS(=O)(=O)c4c(OC)cc(C5COCCO5)cc4OC)c3cc2OC)[nH]n1 (single isomer, unassigned) [Example 240, 4-(1,4-dioxan-2-yl)-N-{6-[(3-ethyl-1H-pyrazol-5-yl)amino]-5-methoxy-1,2-benzoxazol-3-yl}-2,6-dimethoxybenzene-1-sulfonamide]	7.5 nM	1.2 nM	–	–	–	–
COc1cc2c(NS(=O)(=O)c3c(OC)cc(C4CC(F)CCN4C)cc3OC)noc2cc1Nc1cc(C2CC2)[nH]n1 (stereo not drawn) [Example 193, N-{6-[(5-cyclopropyl-1 H-pyrazol-3-yl)amino]-5-methoxy-1,2-benzoxazol-3-yl}-4-trans(4-fluoro-1-methylpiperidin-2-yl)-2,6-dimethoxybenzene-1-sulfonamide]	12 nM	1.4 nM	–	–	–	–
COc1cc2c(NS(=O)(=O)c3c(OC)cc([C@@H]4CCCN4C)cc3OC)noc2cc1Nc1cc(C2CC2)n[nH]1 [Example 189]	20.8 nM	3.7 nM	–	–	–	–
COc1cc2c(NS(=O)(=O)c3c(OC)cc(C4CN(C)CCC4(F)F)cc3OC)noc2cc1Nc1cc(C2CC2)n[nH]1 (single isomer, unassigned) [Example 175, N-{6-[(3-cyclopropyl-1 H-pyrazol-5-yl)amino]-5-methoxy-1,2-benzoxazol-3-yl}-4-(4,4-difluoro-1-methylpiperidin-3-yl)-2,6-dimethoxybenzene-1-sulfonamide]	1 nM	0.4 nM	–	–	–	–
COc1cc2c(NS(=O)(=O)c3c(OC)cccc3OC)noc2cc1Nc1cc(C)nn1C(C)C [Example 52, 2,6-dimethoxy-N-(5-methoxy-6-{[3-methyl-1-(propan-2-yl)-1H-pyrazol-5-yl]amino}-1,2-benzoxazol-3-yl)benzene-1-sulfonamide]	> 12500 nM	73.5 nM	–	–	–	–
CCN1CCCCC1c1cc(OC)c(S(=O)(=O)Nc2noc3cc(Nc4cc(C5CC5)n[nH]4)c(OC)cc23)c(OC)c1 (single isomer, unassigned) [Example 174, N-{6-[(3-cyclopropyl-1 H-pyrazol-5-yl)amino]-5-methoxy-1,2-benzoxazol-3-yl}-4-(1-ethylpiperidin-2-yl)-2,6-dimethoxybenzene-1-sulfonamide]	27.3 nM	4.4 nM	–	–	–	–
COc1cc2c(NS(=O)(=O)c3c(OC)cc(CN4CC[C@@H](C(F)F)C4)cc3OC)noc2cc1Nc1cc(C2CC2)n[nH]1 [Example 204]	4.9 nM	1.1 nM	–	–	–	–
COCc1cc(Nc2cc3onc(NS(=O)(=O)c4c(OC)cccc4OC)c3cc2OC)[nH]n1 [Example 91, 2,6-dimethoxy-N-(5-methoxy-6-{[3-(methoxymethyl)-1H-pyrazol-5-yl]amino}-1,2-benzoxazol-3-yl)benzene-1-sulfonamide]	802 nM	2.3 nM	–	–	–	–
